In patent US12478671B2, “Sterols as novel immunomodulatory agents and their use as vaccine adjuvants” (Ohio State Innovation Foundation, priority 2017, dated 2025):

Columns and labels:
[1] = tested on: RAW macrophages (RAW 264.7); assay: Macrophage activation: surface expression of MHC-II, CD40, CD80, CD86 by flow cytometry; assay type: cell-based
Protocol: (§1) Macrophage Activation. RAW macrophages (RAW 264.7 (ATCC TIB-71), ATCC, Manassas, VA, USA) were plated at a concentration of 0.5×10^6 cells per well in 24-well plates, and treated with PEN (25 μM or 50 μM) or DMSO (vehicle control) for 24, 48 and 72 h. At the indicated times, cells were harvested for detection of MHC-II, CD40, CD80, CD86 surface expression by flow cytometry. RNA was also extracted from cells to determine gene expression of Tnfα, Il1b, Il6, IL10, Il15, Il18, Nos2, Arg1, and Chil3 by RT-PCR.
Flow Cytometry. Macrophages treated with PEN or the DMSO control were harvested, washed in PBS, blocked with normal mouse serum, and incubated with fluorochrome conjugated antibodies against the cell surface markers CD40, CD80, CD86 and MHC-II (Biolegend). Cells were acquired on a BD FACS Calibur (BD Biosciences) and analysis was performed using FlowJo software (Tree Star Inc, Ashland, OR, USA).

OVA-immunized mice [2] = assay: Mouse immunization study: cytokines of spleen and lymph node cells after ex vivo OVA re-stimulation; assay type: in vivo, BALB/c mice
Protocol: (§2) Mouse Immunization Studies. Six- to seven-week-old female BALB/c mice were purchased from Harlan Laboratories (Indianapolis, IN, USA). Mice were randomized into three groups, and immunized subcutaneously with 100 μg OVA (endotoxin free; BioVendor, Ashville, NC, USA) plus vehicle (Group 1), 100 μg OVA plus 10 μg PEN (Group 2), or 100 μg OVA plus 100 μg PEN (group 3, […]). Each group received respective boosting doses of treatment at weeks 2 and 4. Serum was collected from each mouse at every two weeks after initial immunization for detection of IgG1 and IgG2A antibodies by ELISA. Mice were euthanized at week 10 and spleens and lymph nodes were harvested for detection of cytokines IFN-γ, IL-4, IL-10 and IL-13 by ELISA after re-stimulation with 1 mg/mL OVA antigen for 72 h.
(§3) Cytokine ELISA. Purified anti-mouse antibodies against IFN-γ, IL-4, IL-10, IL-12 (Biolegend, San Diego, CA, USA) and IL-13 (eBiosciences, San Diego, CA, USA) were used to coat plates. Recombinant mouse IFN-γ, IL-4, IL-10, IL-12 and IL-13 (BD Biosciences, San Jose, CA, USA) were used as standards. Biotinylated anti-mouse antibodies for IFN-γ, IL-4, IL-10, IL-12 and IL-13 (Biolegend, San Diego, CA) were used as detection antibodies. AKP-streptavidin (BD Biosciences) and p-nitrophenylphosphate (PNPP, Thermo Fisher Scientific, Waltham, MA, USA) were used for detection. Absorbance was measured at 405 nm using a Spectramax microplate reader and data were analyzed by Softmax Pro software (Molecular Devices LLC, Sunnyvale, CA).

[3] = tested on: RAW-Blue NF-kB/AP1 reporter cell line; assay: NF-κB and AP-1 activity assay (SEAP reporter, alkaline phosphatase activity); assay type: cell-based; settings: 25 μM, 24 h, compared to vehicle alone (FIG. 1)
Protocol: NF-κB and AP-1 Activity Assay. NF-kB and AP-1 activity was analyzed using the RAW-Blue NF-kB/AP1 reporter cell line (InvivoGen, San Diego, CA, USA), which contains a secreted embryonic alkaline phosphatase (SEAP) reporter construct, inducible by NF-κB and AP-1. Cells were cultured in RPMI 1640 medium supplemented with 10% FBS (Atlanta Biologicals, Flowery Branch, GA, USA) and 1% penicillin streptomycin (Life Technologies, Carlsbad, CA, USA), and stimulated with 25 μM PEN or DMSO (vehicle control) for 24 h. Culture supernatants were then collected and alkaline phosphatase activity was determined by incubating with the detection medium QUANTI-Blue (InvivoGen), and measuring at 655 nm using a SpectraMax spectrophotometer (Molecular Devices LLC, Sunnyvale CA, USA) and analyzed using Softmax Pro software (Molecular Devices LLC).

[4] = tested on: RAW macrophages (RAW 264.7); assay: Macrophage gene expression by RT-PCR; assay type: cell-based
Protocol: as §1
Real Time PCR. Total RNA was extracted from RAW macrophages using TRIzol reagent (Life Technologies). RNA was reverse-transcribed to cDNAs using an iScript reverse transcriptase kit (Bio-Rad, Hercules, CA, USA). Real-time PCR reactions using the IQ SYBR Green mix reagent were performed in a CFX96 RT-PCR cycler (Bio-Rad). Primer sequences for Tnfa, Illb, 116, IL10, 1115, 1118, Nos2, Argl and Chil3 were selected from the Primer Bank database (pga.mgh.harvard.edu/primerbank). Data were normalized to the reference gene β-actin and presented as fold induction over controls.

OVA-immunized mice [5] = assay: Mouse immunization study: serum IgG1 and IgG2a antibody ELISA; assay type: in vivo, BALB/c mice; settings: 10 μg and 100 μg with 100 μg OVA s.c., compared to vehicle controls (FIG. 6)
Protocol: as §2
Antibody ELISA. Mice were bled at weeks 2, 4, 6, 8 and 10 after immunization and serum was collected from the blood samples. IgG1 and IgG2a antibody titers were determined by ELISA using HRP-conjugated antibodies (Biolegend) and TMB substrate (KPL, Inc., Gaithersburg, MD, USA). Absorbance was measured at 450 nm by Spectramax microplate reader and data were analyzed by Softmax Pro software (Molecular Devices LLC).

[6] = tested on: OT-II T cells co-cultured with BMDCs; assay: T cell co-culture with OVA-peptide-loaded BMDCs (CFSE proliferation, IFN-γ ELISA); assay type: cell-based, OT-II transgenic mice
Protocol: T Cell Co-culture Experiments 5×10^4 BMDCs were pulsed with 10 μg/mL OVA323-339 peptide (Anaspec, Fremont, CA, USA) for 2 h, then incubated with PEN (25 μM or 50 μM) or DMSO (vehicle control) for 24 h. CFSE labeled T cells isolated from spleens of OT-II transgenic mice were added to the wells at a 1:4 (BMDC:T cell) ratio and incubated for 72 h. Antigen-specific T cell proliferation was analyzed by flow cytometry of CFSE stained cells. Cell co-culture supernatants were collected for analysis of IFN-γ cytokine production by ELISA.
as §3

[7] = tested on: Bone marrow-derived dendritic cells (BMDCs); assay: Cytokine production (ELISA) by bone marrow-derived dendritic cells; assay type: cell-based, C57BL/6 mice
Protocol: Isolation of Mouse Bone Marrow-derived Dendritic Cells. Bone marrow-derived dendritic cells (BMDCs) were prepared by harvesting bone marrow cells from the femurs and tibias of C57BL/6 mice. Red blood cell lysis was performed in ACK lysis buffer, and subsequent cells were plated in RPMI medium supplemented with 10% FBS, 1% penicillin-streptomycin (Life Technologies) and 20 ng/mL GM-CSF (Peprotech, Rocky Hill, NJ, USA) at 5 million cells/dish for 6 to 8 days. Cells were harvested then stimulated with PEN (25 μM or 50 μM) or DMSO for 24 h, and culture supernatants were collected for detection of IL-12 and IL-10 cytokines by ELISA.
as §3

[8] = both concentrations (25 μM, 50 μM), 72 h

C=C(CCC=C(C)C)[C@H]1CC[C@H]2[C@@H]3CCC4=CC(=O)CC[C@]4(C)[C@H]3CC[C@]12C [PEN, pentalinonsterol]
expression of CD40 ([1]; 25 μM and 50 μM, after 72 h (FIGS. 2A, 2E)): significantly enhanced
expression of MHC-II ([1]; 25 μM and 50 μM, at 48 h and 72 h (FIGS. 2B, 2F)): significantly enhanced
expression of CD80 ([1]; 50 μM, 48 h): increased
expression of CD86 ([1]; 50 μM, 48 h): increased
expression of CD80 [1, 8]: increased
expression of CD86 [1, 8]: increased
levels of IL-4 (OVA-immunized mice [2]; culture supernatants of lymph node and splenic cells (FIGS. 7B, 7F)): increased
levels of IL-13 (OVA-immunized mice [2]; culture supernatants of lymph node and splenic cells (FIGS. 7D, 7H)): increased
levels of IL-10 (OVA-immunized mice [2]; culture supernatants of lymph nodes and spleens, PEN vs vehicle control (FIGS. 7C, 7G)): generally comparable
levels of IFN-γ (OVA-immunized mice [2]; lymph node cells and splenocytes, OVA re-stimulation (FIGS. 7A, 7E)): significantly increased
alkaline phosphatase activity (NF-κB/AP-1 SEAP reporter) [3]: significantly increased
transcript levels of Arg1 [4]: increased
IL-15 gene transcripts ([4]; 25 μM, after 24 h (FIG. 3E)): increased
IL-18 gene transcripts ([4]; 25 μM, after 24 h (FIG. 3F)): increased
Il1b gene expression ([4]; 24 and 48 h, not statistically significant (FIG. 3B)): increased trend
mRNA levels of Tnfα ([4]; 48 h (FIG. 3A)): increases
mRNA levels of Il6 ([4]; 48 h (FIG. 3C)): increases
gene transcript levels of Nos2 ([4]; after 48 h (FIG. 3D)): significantly increased
transcript levels of Chil3 ([4]; at 24 h and 48 h): significantly reduced
transcript levels of IL-10 ([4]; at 48 h): significantly reduced
IgG1 antibody titers (OVA-immunized mice [5]): significantly increased
IgG2a antibody titers (OVA-immunized mice [5]): significantly increased
T cell proliferation ([6]; 72 h co-culture, PEN-treated vs DMSO-treated BMDCs (FIG. 4C)): higher
production of IFN-γ by T cells ([6]; 72 h co-culture, PEN-treated vs DMSO-treated BMDCs (FIG. 4D)): significantly increased
T cell responses (proliferation and IFN-γ), 50 μM compared to 25 μM ([6]; BMDCs treated with 50 μM vs 25 μM): greater
IL-10 production ([7]; 50 μM, 24 h (FIG. 4B)): slight increase
production of IL-12 ([7]; 24 h (FIG. 4A)): significantly induces
